# Reference: ChEMBL document CHEMBL6178021, “Optimization of Tambjamines Active against Multiple Stages of Malaria Parasites” (J Med Chem, 2025)
# pIC50: −log10 of the molar value.
# Assays:
# HepG2 = assay: Cytotoxicity against human HepG2 cells assessed as cell viability measured after 48 hrs by MTT assay; assay type: toxicity, cell-based; details: hepg2
# Plasmodium falciparum [1] = assay: microbe, parasite or virus in culture; details: D6, 72 h
# Description: Antiplasmodial activity against asexual blood-stage Plasmodium falciparum D6 using 2% haematocrit and 0.2% parasitemia assessed as reduction in fluorescence measured after 72 hrs by Malaria SYBR Green I-based Fluorescence (MSF) assay
# Plasmodium falciparum [2] = assay: Antiplasmodial activity against asexual blood-stage Plasmodium falciparum Tm90-C2B using 2% haematocrit and 0.2% parasitemia assessed as reduction in fluorescence measured after 72 hrs by Malaria SYBR Green I-based Fluorescence (MSF) assay; assay type: functional, organism-based
# MDR1 (human) [3] = assay: Apparent permeability across apical to basolateral side in MDCK transfected with human MDR1 cells incubated for 1 hr by LC-MS analysis; details: dog, MDCK-MDR1
# Plasmodium yoelii [4] = assay: Antimalarial activity against erythrocytic Plasmodium yoelii MRA-428 infected in CF1 mouse assessed as reduction in parasitemia at 25 mg/kg, po once daily for 4 days measured on day 5; assay type: functional; design: scale not given: the % may be the effect or the level left; details: time 4 day
# [5] = Metabolic stability in human liver microsomes assessed as half life measured up to 60 mins by LC/MS analysis; assay type: ADME, Microsome
# [6] = Solubility of the compound in potassium phosphate buffer at pH 7.4 by UV-vis spectroscopy; details: buffer
# [7] = Metabolic stability in mouse liver microsomes assessed as half life measured up to 60 mins by LC/MS analysis; assay type: ADME, Microsome
# Plasmodium yoelii [8] = assay: Antimalarial activity against erythrocytic Plasmodium yoelii MRA-428 infected in CF1 mouse assessed as reduction in parasitemia at 50 mg/kg, po once daily for 4 days measured on day 5; assay type: functional; design: scale not given: the % may be the effect or the level left; details: time 4 day
# Plasmodium falciparum [9] = assay: microbe, parasite or virus in culture; details: Dd2, 72 h
# Description: Antiplasmodial activity against asexual blood-stage Plasmodium falciparum Dd2 using 2% haematocrit and 0.2% parasitemia assessed as reduction in fluorescence measured after 72 hrs by Malaria SYBR Green I-based Fluorescence (MSF) assay
# in vitro [10] = details: mouse, liver microsomes
# Plasmodium yoelii [11] = assay: Antimalarial activity against erythrocytic Plasmodium yoelii MRA-428 infected in CF1 mouse assessed as reduction in parasitemia at 10 mg/kg, po once daily for 4 days measured on day 5; assay type: functional; design: scale not given: the % may be the effect or the level left; details: time 4 day
# MDR1 (human) [12] = assay: Apparent permeability across basolateral to apical side in MDCK transfected with human MDR1 cells incubated for 1 hr by LC-MS analysis; details: dog, MDCK-MDR1
# in vitro [13] = details: human, liver microsomes
# Plasmodium yoelii [14] = assay: Antimalarial activity against erythrocytic Plasmodium yoelii MRA-428 infected in CF1 mouse assessed as cured mouse at 50 mg/kg, po once daily for 4 days measured on day 28 day; assay type: functional, organism-based; details: time 4.0 day
# Plasmodium yoelii [15] = assay: Antimalarial activity against erythrocytic Plasmodium yoelii MRA-428 infected in CF1 mouse assessed as cured mouse at 25 mg/kg, po once daily for 4 days measured on day 28 day; assay type: functional, organism-based; details: time 4.0 day
SMILES,pIC50 (HepG2),pIC50 (Plasmodium falciparum [1]),pIC50 (Plasmodium falciparum [2]),Papp A→B at 1 h (MDR1 (human) [3]) [×10⁻⁶ cm/s],Activity (Plasmodium yoelii [4]) [%],half-life [5] [min],solubility [6] [µM],half-life [7] [min],Activity (Plasmodium yoelii [8]) [%],pIC50 (Plasmodium falciparum [9]),microsomal CLint at 1 h (in vitro [10]) [µL/min/mg],Activity (Plasmodium yoelii [11]) [%],Papp B→A at 1 h (MDR1 (human) [12]) [×10⁻⁶ cm/s],microsomal CLint at 1 h (in vitro [13]) [µL/min/mg],Activity (Plasmodium yoelii [14]),Activity (Plasmodium yoelii [15])
CCc1ccc(C2=N/C(=C\NC3CCCCCCC3)C(C)=C2C)[nH]1,5.70,8.30,8.37,0.022,97,> 60,57.7,> 60,100,8.40,–,–,–,–,–,–
CCc1ccc(C2=N/C(=C\NC3CCCCC3)C(OC)=C2OC)[nH]1,4.94,7.99,8.40,0.21,12.1,> 60,99.6,26.2,–,7.81,52.8,12.3,0.49,16.8,–,–
COC1=C(OC)/C(=C/NC2CCCCC2)N=C1c1ccc[nH]1,4.38,7.18,7.08,4.3,70.8,14.6,478,18.7,–,7.13,74.1,0,4.8,94.9,–,–
C(/NC1CCCCC1)=C1/N=C(c2ccc[nH]2)C2=C1CCCC2,–,–,7.78,0.27,100,–,294,23.8,100,7.88,58.2,88.8,0.092,51.9,Not active; None Of The Mouse Cured Out Of Four Tested,Not active; None Of The Mouse Cured Out Of Four Tested
CCC1=C(C)/C(=C/NC2CCCCC2)N=C1c1ccc(C)[nH]1,5.09,7.56,7.49,0.33,100,> 60,72.5,31.7,100,7.80,43.7,80.3,0.099,6.07,Not active; None Of The Mouse Cured Out Of Four Tested,Not active; None Of The Mouse Cured Out Of Four Tested
CCC1=C(CC)/C(=C/NC2CCCCCC2)N=C1c1ccc(CC)[nH]1,5.44,8.14,8.34,0.03,100,> 60,30.1,> 60,100,8.49,5.29,37.6,0.012,13.3,Not active; None Of The Mouse Cured Out Of Four Tested,Not active; None Of The Mouse Cured Out Of Four Tested
CCC1=C(C)/C(=C/NC2CCCCCCC2)N=C1c1ccc(CC)[nH]1,5.37,8.13,8.53,0.095,100,41.4,10,> 60,100,8.05,17.5,61.9,–,33.4,Not active; None Of The Mouse Cured Out Of Four Tested,Not active; None Of The Mouse Cured Out Of Four Tested
COc1ccc(Cc2ccc(C3=N/C(=C\NC4CCCCC4)C4=C3OCCO4)[nH]2)cc1,5.81,8.22,8.02,0.002,31.2,> 60,16.4,> 60,–,7.90,16.2,5.01,0.051,18.1,–,–
C(/NC1CCCCC1)=C1/N=C(c2ccc[nH]2)C2=C1OCCO2,5.04,7.31,7.36,0.33,26.7,13.1,231,16.1,–,7.27,86.4,7.6,4.4,105,–,–
COc1ccc(Cc2ccc(C3=N/C(=C\NC4CCCCC4)C4=C3CCCC4)[nH]2)cc1,5.70,8.01,8.23,–,0,> 60,25.5,> 60,–,7.91,9.87,0,–,11.2,–,–
CCc1ccc(C2=N/C(=C\NC3CCCCCC3)C3=C2OCCO3)[nH]1,5.75,8.12,8.48,0.042,67.4,> 60,52.1,28.7,–,7.78,48.2,34.2,0.47,20.6,–,–
CCC1=C(CC)/C(=C/NC2CCCCC2)N=C1c1ccc[nH]1,4.89,7.14,7.10,0.22,100,30.5,307,40.1,100,6.94,34.5,94.4,0.18,45.5,Not active; None Of The Mouse Cured Out Of Four Tested,Not active; None Of The Mouse Cured Out Of Four Tested
CCN(CC)CCCC(C)Nc1ccnc2cc(Cl)ccc12 (centres undefined),–,–,–,–,–,–,–,–,–,–,–,–,–,–,Not active; None Of The Mouse Cured Out Of Four Tested,Not active; None Of The Mouse Cured Out Of Four Tested
CCc1ccc(C2=N/C(=C\NC3CCCCCC3)C(OC)=C2OC)[nH]1,4.96,8.43,8.85,0.059,59.6,> 60,56.1,36.6,–,8.30,37.9,13.5,0.16,12.6,–,–
CC1=C(C)/C(=C/NC2CCCCC2)N=C1c1ccc(C)[nH]1,5.17,8.00,8.31,0.053,100,> 60,168,37.2,100,8.38,37.3,0,0.37,13.6,Not active; None Of The Mouse Cured Out Of Four Tested,Not active; None Of The Mouse Cured Out Of Four Tested
CC1=C(C)/C(=C/NC2CCCCCC2)N=C1c1ccc(C)[nH]1,5.17,7.91,8.32,0.006,100,55,72.3,36.8,100,8.43,37.6,0,0.12,25.2,Not active; None Of The Mouse Cured Out Of Four Tested,Not active; None Of The Mouse Cured Out Of Four Tested
C(/NC1CCCCCC1)=C1/N=C(c2ccc[nH]2)C2=C1OCCO2,5.11,–,7.90,1.7,31.2,14.9,183,19.5,–,7.59,79.8,0,2.9,92.8,–,–
CCC1=C(CC)/C(=C/NC2CCCCCCC2)N=C1c1ccc(Br)[nH]1,5.02,7.27,7.12,0.006,42.3,> 60,6.28,> 60,–,6.91,10.4,20.4,0.066,9.19,–,–
